Test results published in patent US7723299B2, “Methods for treating rheumatoid arthritis using a CTLA-4 fusion protein” (ForHumanTech. Co., Ltd., priority 2005, dated 2010).
No end group written: not given here.

Key:
[1] = test system: Jurkat (E6.1) cells; assay: Transduction efficiency and kinetics of Hph-1-β-gal, western blot; format: cell-based
Experimental: (§1) After the Hph-1-β-gal construct was transduced into each cell line for 1 hour, the cells were washed with PBS and fixed immediately. Then, the fixed cells were incubated with X-Gal solution for 1-3 hours at 37° C. The mice tissue samples from the liver, kidney, heart, lung, spleen and brain were isolated at 12 hours after i.p. injection of Hph-1-β-gal, sectioned (in 10- and 50-μm sections), and assayed using an X-Gal staining kit (Roche) (Schwarze S. R., et al., Science 285:1569-1572 (1999)). The image was captured by fluorescence microscopy (Nikon). Transduction capacity of Hph-1-β-gal was also analyzed by western blot analysis. Equal numbers of cells were solubilized in SDS-PAGE sample buffer and the proteins were resolved on a 12% gel, and blotted onto PVDF, which was probed with monoclonal antibody (1:1,000) to β-gal (Cell Signaling). Bound antibody was detected using horseradish peroxidase-conjugated antibody to mouse IgG (1:5,000), followed by enhanced chemiluminescence (Pierce). To monitor the localization of the Hph-1-PTD-eGFP fusion protein, Hela cells were incubated with 10 μM of Hph-1-eGFP fusion protein for 30 min and the fluorescence of eGFP was analyzed by confocal microscopy (Bio Rad).
Using the purified Hph-1-β-gal fusion protein or the control β-gal protein, transduction efficiency was analyzed by western blot analysis in Jurkat (E6.1) cells. […] (FIG. 11B).

[2] = test system: HeLa, HepG2, HaCat and NIH3T3; assay: Transduction efficiency in various cell lines, X-gal staining; format: cell-based; conditions: 1 hour incubation with Hph-1-β-gal
Experimental: FIG. 1C are photographs of transduction efficiency of Hph-1 in several cell lines, including HeLa, HepG2, HaCat and NIH3T3. After 1 hour incubation with Hph-1-β-gal, cells were fixed and stained with X-gal solution. The images were then captured by fluorescence microscopy.
as §1, with “Equal numbers of cells were solubilized in SDS-PAGE sample buffer and the proteins were resolved on a 12% gel, and blotted onto PVDF, which was probed with monoclonal antibody (1:1,000) to β-gal (Cell Signaling).” left out, “Rad). […]” for “Rad).”

[3] = test system: Jurkat T cells; assay: Transduction efficiency and kinetics of Hph-1-ctCTLA-4, intracellular staining; format: cell-based
Experimental: Transduction efficiency of Hph-1-HA-ctCTLA-4 was analyzed by intracellular staining using HA-fluorescein mAb (Cell Signaling). After cells were permeablized by cytofix/cytoperm solution (Pharmingen) and incubated with HA-fluorescein mAb at 4° C. for 30 min. Intracellular fluorescence was determined by FACS calibur (Becton Dickinson).
By taking advantage of the capacity of Hph-1-PTD to deliver a large target protein into the cells or organs in vivo through nasal airway, a fusion protein of Hph-1-PTD and the cytoplasmic domain of CTLA-4 (Hph-1-PTD-ctCTLA-4) was constructed as described in FIG. 3A, to be used for local suppression of the immune response in an asthma model. We constructed control proteins comprised of ctCTLA-4 without Hph-1-PTD and Hph-1-ctCTLA-4YF, in which two tyrosine residues essential for its negative function were mutated into phenylalanine. The transduction efficiency of Hph-1-ctCTLA-4 was tested in Jurkat T cells, which are known not to express CTLA-4 on the surface. These cells were treated with different concentrations of Hph-1-ctCTLA-4 for different periods of time, and both the transduction efficiency and kinetics were analyzed by intracellular staining.

[4] = test system: OVA-challenged mice; assay: OVA-induced allergic asthma model; conditions: for histological examination of lung tissues, infiltration of inflammatory cells / infiltration of inflammatory cells (eosinophils, macrophages, neutrophils, lymphocytes) into BAL fluid: OVA challenge; for infiltration of inflammatory cells (eosinophils, macrophages, neutrophils, lymphocytes) into BAL fluid: intra-nasal pretreatment
[5] = test system: Zap70, ERK and JNK; assay: Tyrosine phosphorylation of signaling mediators after TcR stimulation; format: cell-based; conditions: T cells
[6] = test system: Jurkat T cells and primary human CD4^+ T cells; assay: IL-2 secretion of T cells activated with anti-CD3 and anti-CD28 mAbs, ELISA; format: cell-based; conditions: for inhibition of induction of IL-2 secretion: Jurkat or human CD4^+ T cells, fusion and control proteins
Experimental: (§2) Primary human CD4^+ T cells were purified from buffy coats from healthy donors. PBMC were isolated by density gradient centrifugation using Histopaque (Sigma). The lymphocyte layer was collected and CD4^+ T cells were isolated by MACS column using CD4 microbeads (Miltenyi Biotec) (Busch R., et al., J. Immunol. Methods 286:97-109 (2004)).
(§3) One million Jurkat (E6.1) cells or primary human CD4^+ T cells were treated with Hph-1-ctCTLA-4 for 1 hour, then washed with PBS and incubated with 0.25 μg of anti-CD28 mAb (Pharmingen) for 20 min at 4° C. The anti-CD28 mAb bound cells were further activated in 0.05 μg of anti-CD3 mAb (Pharmingen) coated plates for 20 hours. Each cell was stained with anti-CD69-PE and anti-CD25-FITC antibodies (Pharmingen) and analyzed by FACS calibur (Becton Dickinson). The supernatant in each well was analyzed for the level of secreted IL-2 by ELISA (R&D system).
(§4) To examine whether the delivered Hph-1-ctCTLA-4 can inhibit T cell activation, Jurkat T cells or primary human CD4^+ T cells were treated with Hph-1-ctCTLA-4 and stimulated with anti-CD28 mAb and plate-bound anti-CD3 mAb. The levels of activation-induced surface proteins such as CD69 and CD25 were analyzed by FACS.

[7] = test system: Jurkat T cells or primary human CD4^+ T cells; assay: Induction of CD69 and CD25 on activated T cells, FACS; format: cell-based; conditions: anti-CD28 mAb and plate-bound anti-CD3 mAb stimulation
Experimental: as §2, §3, §4

[8] = single pretreatment, 25 μg, OVA-challenged mice

Question: Which “reduction of transduction efficiency at 4° C.” value ([1]; 4° C.) does the source give for “Hph-1-PTD: protein transduction domain of 11 amino acids (YARVRRRGPRR) from human transcriptional factor Hph-1; tested as β-gal fusion (also: tested as β-gal fusion; listed as Homo sapiens)” here?
Answer: 40%

Question: And the “concentration dependence of protein transduction” value ([1]; Jurkat (E6.1) cells)?
Answer: concentration-dependent manner

Question: What about the “cells positive for β-gal enzyme activity” value [2] of the same substance?
Answer: ~100%

Question: “Hph-1-ctCTLA-4: fusion protein of Hph-1-PTD and the cytoplasmic domain of CTLA-4 (KMLKKRSPLTTGVYVKMPPTEPECEKQFQPYFIPIN; ctCTLA-4)” was tested. Which “time to maximal levels of intracellular protein” value ([3]; after incubation) did it give?
Answer: 60 min

Question: What about the “transduction into the cells” value ([3]; intracellular staining) of the same substance?
Answer: concentration-dependent

Question: What about the “histological examination of lung tissues, infiltration of inflammatory cells” value [4] of the same substance?
Answer: Inflammatory cells could not infiltrate through the mucus

Question: What about the “inflammatory index in the lung” value ([4]; OVA-challenged mice, pretreated) of the same substance?
Answer: significantly reduced

Question: And the “infiltration of inflammatory cells (eosinophils, macrophages, neutrophils, lymphocytes) into BAL fluid” value ([4]; 25 μg)?
Answer: prevent against the infiltration of these inflammatory cells into the BAL fluid to the levels observed in the PBS-challenged control group

Question: And the “OVA-induced airway hyper-responsiveness to methacholine” value ([4]; nebulized methacholine)?
Answer: substantially attenuated

Question: And the “neutrophil and macrophage infiltration” value ([4]; single administration of about 1 mg/kg through the nasal route before the first OVA challenge)?
Answer: effectively inhibited

Question: And the “generation of IFN-γ and TGF-β in BAL fluid” value [4, 8]?
Answer: not found to affect

Question: What about the “production of eotaxin and Th2 type cytokines (IL-5, IL-6, IL-13) in BAL fluid” value [4, 8] of the same substance?
Answer: significantly inhibited

Question: What about the “induction of tyrosine phosphorylation of Zap70, ERK and JNK” value [5] of the same substance?
Answer: markedly inhibited

Question: What about the “concentration that effectively blocks T cell activation” value [6] of the same substance?
Answer: 10 pM

Question: And the “level of inhibition of IL-2 secretion compared with CsA” value ([6]; 10 pM of Hph-1-ctCTLA-4 versus CsA)?
Answer: better or equivalent

Question: What about the “inhibition of induction of IL-2 secretion” value [6] of the same substance?
Answer: concentration dependent manner at picomolar range

Question: What about the “fold lower concentration than CsA for comparable inhibition of T cell activation” value ([6]; versus CsA) of the same substance?
Answer: 1000 fold

Question: And the “induction of surface marker proteins CD69 and CD25” value [7]?
Answer: significantly inhibited

Question: Which “histological examination of lung tissues, infiltration of inflammatory cells” value [4] does the source give for “Hph-1-ctCTLA-4YF: control protein in which two tyrosine residues essential for its negative function were mutated into phenylalanine (KMLKKRSPLTTGVFVKMPPTEPECEKQFQPFFIPIN; ctCTLA-4YF) [reference compound]” here?
Answer: not observed

Question: And the “infiltration of inflammatory cells (eosinophils, macrophages, neutrophils, lymphocytes) into BAL fluid” value ([4]; 25 μg)?
Answer: did not show these inhibitory effects

Question: What about the “production of eotaxin and Th2 type cytokines (IL-5, IL-6, IL-13) in BAL fluid” value [4, 8] of the same substance?
Answer: no inhibition

Question: What about the “inhibition of induction of IL-2 secretion” value [6] of the same substance?
Answer: neither ctCTLA-4 without Hph-1-PTD nor Hph-1-ctCTLA-4YF blocked IL-2 secretion

Question: And the “induction of surface marker proteins CD69 and CD25” value [7]?
Answer: did not show any inhibition
